In US20160153002A1, “METHOD FOR CELL MEMBRANE PERMEATION FOR COMPOUND” (HitGen LTD., priority 2013, published 2016):
{NH2C12} = amino-(CH2)12 linker attached through a phosphate; {FITC} = fluorescein (FITC) label

Each substance was assayed on HepG2 cells (assay: Transmembrane transfer of FITC-tagged single-stranded or double-stranded DNA/RNA with X-tremeGENEsiRNA reagent, laser confocal microscopy). Conditions: 4 nmol, 6 h, laser confocal microscope, FIG. 5.
Format: cell-based
Procedure: 24 h before transfer, the HepG2 cells in the phase of logarithmic growth were digested with trypsin; a culture medium containing 10% serum was used for adjusting the cell density to 0.5×10^6 cells/mL; and the cells were inoculated again in a cell culture dish of 15 cm and cultured in a culture incubator containing 5% CO2 at 37° C. The cells may be used for experiments when the cell density reaches 60% to 70% 24 h later.
4 nmol of synthesized single-stranded or double-stranded DNA/RNA fragments in different sequences was added to a sterile centrifuge tube (tube A) of 15 mL, respectively, and uniformly mixed with Opti-MEM in a corresponding volume, with a total volume of 2 mL; the X-tremeGENEsiRNA reagent was shaken gently, and 160 μL of X-tremeGENEsiRNA reagent was mixed with 1.84 mL of Opti-MEM in another tube (tube B); and the solution in the tube A was mixed with the solution in the tube B, the mixture was slightly triturated by a pipette and incubated for 20 min at room temperature.
6 mL of RPMI-1640 serum-free culture medium was added to the mixture and mixed uniformly; the primary culture medium in the HepG2 cell culture dish was discarded, and slightly triturated with RPMI-1640 serum-free culture medium once; and then, the mixture was moved into the HepG2-PT cell culture dish, and cultured in a culture incubator containing 5% CO2 at 37° C. 6 h later, the positioning of the DNA/RNA in the cells was observed by a laser confocal microscope.

Substance	positioning of the DNA/RNA in the cells (transfer into cells)
5′-NH2—(CH2)12—PO4-A3-3′-FITC [polyA of 38 bp]	transferred into cells by X-tremesiRNA, with most of them into the cytoplasm and a few of them into the cell nucleus
5′-NH2—(CH2)12—PO4-A5-3′-FITC [polyA of 5 bp]	transferred into cells by X-tremesiRNA, with most of them into the cytoplasm and a few of them into the cell nucleus
5′-NH2—(CH2)12—PO4-A19-3′-FITC [polyA of 19 bp]	transferred into cells by X-tremesiRNA, with most of them into the cytoplasm and a few of them into the cell nucleus
5′-NH2—(CH2)12—PO4-TGGGCTGGCCAAACTGCTG-3′-FITC (DNA, 5' {NH2C12}, 3' {FITC}, backbone and methylation of C not given here)	transferred into cells by X-tremesiRNA, with most of them into the cytoplasm and a few of them into the cell nucleus
double-stranded random sequence fragments of 19 bp: duplex of 5′-NH2-(CH2)12-PO4-TGGGCTGGCCAAACTGCTG-3′-FITC with 3′-ACCCGACCGGTTTGACGAC-5′	transferred into cells by X-tremesiRNA, with most of them into the cytoplasm and a few of them into the cell nucleus
